Measurements published in patent publication US11001561B2, “Pyrimidinone derivatives as SHP2 antagonists” (MERCK PATENT GMBH, priority 2019, dated 2021).
Like-named read-outs stand apart in the source and are kept apart here.

What was measured:
[1] = Pharmacokinetics in mouse (oral / intravenous); assay type: in vivo; settings: female CD1 mice; for clearance / Vd: mouse; for Vd: read-out: Vd ss
Method: Female CD1 mice (N=3) received a single oral (gavage) or a single intravenous (bolus) injection of compound. […] Consecutive blood samples were taken sub-lingually under isofluorane inhalation from animals after 0.083 (IV), 0.25, 0.5, 1, 2, 4, 6 and 24 h and were further processed to obtain plasma. Samples were protein precipitated and analysed by LC/MS/MS.

[2] = target: Full length SHP2 protein (Recombinant Human SHP-2) (Homo sapiens (Human), UniProt Q06124); assay: SHP2 biochemical assay (DiFMUP substrate, activating peptide IRSI_2pY)
Method: The inhibition of SHP2 by compounds of the invention was monitored using the surrogate substrate DiFMUP after protein activation by a peptide bearing two appropriately spaced phosphotyrosine. […] The generation of the DiFMU product by activated SHP2 was monitored through Fluorescence measurement with a PerkinElmer Envision reader. The inhibitor dose response curves were analyzed with Genedata Screener.

[3] = target: auto-activated mutant protein SHP2 E76K (Homo sapiens (Human), UniProt Q06124, E76K); assay: SHP2 active mutant E76K biochemical assay with and without activating peptide
Method: The inhibition of SHP2 by compounds of the invention was monitored using the surrogate substrate DiFMUP after protein activation by a peptide bearing two appropriately spaced phosphotyrosine. Full length SHP2 protein (Recombinant HumanSHP-2, E. coli derived Ser2Arg593, N-terminal 6His tag from R&D systems; 0.0.24 nM) was incubated with activating peptide, IRSI_2pY (New England Peptide, 140 nM) and DiFMUP (molecular probes, 80 uM) at RT in buffer (HEPES pH 7.2 60 mM, DDT 5 mM, KCl 75 mM, NaCl 75 mM, EDTA 1 mM, Tween 20 0.05%) in presence of compound (10 concentrations range, top concentration 50 μM) for 60 min. The generation of the DiFMU product by activated SHP2 was monitored through Fluorescence measurement with a PerkinElmer Envision reader. The inhibitor dose response curves were analyzed with Genedata Screener.

[4] = target: Kv11.1 (hERG) ion channel (Homo sapiens (Human), UniProt Q12809); assay: hERG patch clamp in Kv11.1 transfected HEK293 cells; assay type: cell-based; settings: for Split between hErg and cell activity Ki (patch Clamp)/IC50 (KYSE): human
Method: Inhibition of the ion channel hErg (or Kv11.1) current causes QT interval prolongation resulting in potentially fatal ventricular tachyarrhythmia called Torsade de Pointes.
hERG ion channel activity was assessed using a patch clamp technique in stable Kv11.1 (hERG) transfected human embryonic kidney cell line (HEK293). Whole cell recordings were carried out with an automated patch clamp device Patchliner™ from Nanion Technologies, Munich following manufacturer recommendation. Different concentrations of the test compound or reference, quinidine, were applied to whole cells suspension and current was measured using a pulse pattern with fixed amplitudes.

pERK1/2 in KYSE520 cells = assay: p-Erk cellular assay in KYSE520 (Mesoscale); assay type: cell-based; settings: Homo sapiens, KYSE-520, 2 h, read-out: pERK1/2 in Cell KYSE520 IC50
Method: p-Erk Cellular Assay in KYSE520: The effect of SHP2 inhibitors on pERK level was assessed using phospho-specific antibody using Mesoscale quantification platform. For measuring change in pERK levels using mesoscale, 30,000 cells of KYSE520 cells were plated in 96-well tissue culture treated plate in 175 μl volume of media. After an overnight incubation at 37° C., various SHP2 inhibitors were added in different concentration to each well maintaining duplicate wells across plates and incubated with compounds for 2 h at 37° C. followed by a wash with ice cold PBS buffer. The cells were then lysed in lysis buffer and processed and analyzed for p-ERK/ERK as per manufacturer's instructions (Mesoscale discovery, cat No. […]-3).

[5] = SHP-2 IC50 (nM) peptide, wild-type SHP-2, with activating peptide
[6] = activating peptide IRSI_2pY 140 nM, DiFMUP, 60 min, read-out: SHP-2 biochemical assay IC50
[7] = with activating peptide IRSI_2pY 140 nM, read-out: SHP-2 E76Z IC50 (nM) peptide
[8] = without activating peptide, read-out: SHP-2 E76Z IC50 (nM) No peptide
[9] = SHP-2 biochemical assay IC50 (μM), activating peptide IRSI_2pY 140 nM, DiFMUP, 60 min
[10] = SHP-2 E76Z IC50 (nM) No peptide, without activating peptide
[11] = SHP-2 E76Z IC50 (nM) peptide, with activating peptide IRSI_2pY 140 nM

Sequence of Kv11.1 (hERG) ion channel (Q12809 whole entry): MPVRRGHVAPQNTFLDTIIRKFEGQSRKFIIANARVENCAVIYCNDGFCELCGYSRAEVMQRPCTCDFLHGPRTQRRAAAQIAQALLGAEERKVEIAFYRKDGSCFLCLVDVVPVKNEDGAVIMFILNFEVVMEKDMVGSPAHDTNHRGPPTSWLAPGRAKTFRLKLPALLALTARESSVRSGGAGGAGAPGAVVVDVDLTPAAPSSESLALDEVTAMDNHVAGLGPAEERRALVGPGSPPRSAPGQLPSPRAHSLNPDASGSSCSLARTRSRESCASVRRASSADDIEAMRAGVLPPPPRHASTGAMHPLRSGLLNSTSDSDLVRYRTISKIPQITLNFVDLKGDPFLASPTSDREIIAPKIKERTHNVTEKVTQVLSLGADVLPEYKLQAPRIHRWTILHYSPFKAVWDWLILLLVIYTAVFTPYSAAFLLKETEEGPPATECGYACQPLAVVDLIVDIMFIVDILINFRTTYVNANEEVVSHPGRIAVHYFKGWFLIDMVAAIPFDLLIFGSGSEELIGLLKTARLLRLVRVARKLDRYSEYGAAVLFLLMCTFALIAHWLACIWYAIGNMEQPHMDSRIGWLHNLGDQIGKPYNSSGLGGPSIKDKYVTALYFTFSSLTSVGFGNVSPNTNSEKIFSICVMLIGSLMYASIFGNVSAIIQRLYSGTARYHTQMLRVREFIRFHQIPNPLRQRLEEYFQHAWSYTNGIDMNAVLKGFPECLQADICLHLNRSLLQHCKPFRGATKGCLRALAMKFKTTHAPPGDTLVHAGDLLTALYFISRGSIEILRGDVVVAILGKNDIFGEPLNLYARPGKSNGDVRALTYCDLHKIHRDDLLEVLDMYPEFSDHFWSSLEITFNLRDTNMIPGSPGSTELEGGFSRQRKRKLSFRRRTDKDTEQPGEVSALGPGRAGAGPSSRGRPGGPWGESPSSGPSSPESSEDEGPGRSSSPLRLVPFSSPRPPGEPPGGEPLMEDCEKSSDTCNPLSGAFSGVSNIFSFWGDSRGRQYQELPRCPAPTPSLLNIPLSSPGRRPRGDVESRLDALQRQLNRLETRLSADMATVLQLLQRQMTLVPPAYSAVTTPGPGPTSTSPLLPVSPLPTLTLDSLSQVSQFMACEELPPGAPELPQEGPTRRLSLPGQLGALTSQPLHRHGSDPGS
Sequence of auto-activated mutant protein SHP2 E76K (Q06124 whole entry E76K): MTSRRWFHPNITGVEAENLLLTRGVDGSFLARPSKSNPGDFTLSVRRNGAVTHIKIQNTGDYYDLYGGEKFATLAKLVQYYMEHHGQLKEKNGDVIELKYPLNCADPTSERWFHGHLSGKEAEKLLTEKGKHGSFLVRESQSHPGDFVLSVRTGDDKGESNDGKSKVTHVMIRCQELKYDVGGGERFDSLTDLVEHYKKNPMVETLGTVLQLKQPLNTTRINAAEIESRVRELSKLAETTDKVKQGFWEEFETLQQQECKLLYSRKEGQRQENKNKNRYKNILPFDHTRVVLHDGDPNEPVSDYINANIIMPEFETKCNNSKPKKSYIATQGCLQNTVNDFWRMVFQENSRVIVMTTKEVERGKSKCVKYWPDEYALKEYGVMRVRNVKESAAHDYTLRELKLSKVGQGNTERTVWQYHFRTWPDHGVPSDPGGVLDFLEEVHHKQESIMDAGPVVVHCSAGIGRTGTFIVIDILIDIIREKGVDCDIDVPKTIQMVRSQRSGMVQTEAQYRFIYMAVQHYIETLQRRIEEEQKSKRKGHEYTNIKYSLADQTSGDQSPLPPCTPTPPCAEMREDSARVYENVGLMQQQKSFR
Sequence of Full length SHP2 protein (Recombinant Human SHP-2) (Q06124 2-593): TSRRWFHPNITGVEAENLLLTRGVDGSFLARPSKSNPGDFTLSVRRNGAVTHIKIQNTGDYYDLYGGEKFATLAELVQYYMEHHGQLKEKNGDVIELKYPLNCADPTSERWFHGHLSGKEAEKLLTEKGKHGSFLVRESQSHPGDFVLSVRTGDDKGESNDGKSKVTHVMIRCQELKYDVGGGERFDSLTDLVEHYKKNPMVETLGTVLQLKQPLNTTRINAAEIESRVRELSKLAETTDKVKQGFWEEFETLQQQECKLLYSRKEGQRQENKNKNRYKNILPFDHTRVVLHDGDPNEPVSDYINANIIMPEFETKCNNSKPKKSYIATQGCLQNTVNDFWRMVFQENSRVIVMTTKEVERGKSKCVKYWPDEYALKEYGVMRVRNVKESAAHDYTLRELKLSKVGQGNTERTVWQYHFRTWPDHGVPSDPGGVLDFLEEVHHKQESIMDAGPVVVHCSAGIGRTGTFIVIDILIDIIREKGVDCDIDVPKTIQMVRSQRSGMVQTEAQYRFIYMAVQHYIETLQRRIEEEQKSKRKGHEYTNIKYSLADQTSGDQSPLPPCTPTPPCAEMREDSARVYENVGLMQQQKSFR

| IC50 [2, 6] [nM] | IC50 (pERK1/2 in KYSE520 cells) [nM] | SMILES | other results |
| --- | --- | --- | --- |
| – | – | Cc1nc(N2CCC3(CC2)CO[C@@H](C)[C@H]3N)cc(=O)n1-c1cccc(Cl)c1Cl (single isomer, unassigned) [Compound 3b] | Fz [1]: 85%; clearance ([1]; plasma, intravenous): 8 mL/min/kg; Vd ([1]; plasma, intravenous): 2.77 L/kg |
| 560 | 6630 | Cc1c(N2CCC3(CCC3N)CC2)nc(C)n(-c2cccc(Cl)c2Cl)c1=O (stereo not shown) [Compound 82, 6-1-amino-7-azaspiro[3.5]nonan-7-yl-3-(2,3-dichlorophenyl)-2,5-dimethyl-3,4-dihydropyrimidin-4-one] | – |
| 27 | 604 | Cc1c(N2CCC3(CC2)CO[C@@H](C)[C@H]3N)nc(C)n(-c2cccc(Br)c2Cl)c1=O [Compound 95, 6-((3S,4S)-4-Amino-3-methyl-2-oxa-8-aza-spiro[4.5]dec-8-yl)-3-(3-bromo-2-chloro-phenyl)-2,5-dimethyl-3H-pyrimidin-4-one] | – |
| 150 | 2000 | Cc1c(N2CCC3(CC2)CO[C@@H](C)[C@H]3N)nc(C)n(-c2cccc(F)c2Cl)c1=O [Compound 96, 6-((3S,4S)-4-Amino-3-methyl-2-oxa-8-aza-spiro[4.5]dec-8-yl)-3-(2-chloro-3-fluoro-phenyl)-2,5-dimethyl-3H-pyrimidin-4-one] | – |
| 78 | 1300 | Cc1c(N2CCC3(CC2)CO[C@@H](C)[C@H]3N)nc(C)n(-c2cccc(Cl)c2Br)c1=O [Compound 97, 6-((3S,4S)-4-Amino-3-methyl-2-oxa-8-aza-spiro[4.5]dec-8-yl)-3-(2-bromo-3-chloro-phenyl)-2,5-dimethyl-3H-pyrimidin-4-one] | – |
| 28 | 955 | Cc1c(N2CCC3(CC2)CO[C@@H](C)[C@H]3N)nc(C)n(-c2ccc(F)c(Cl)c2Cl)c1=O [Compound 99, 6-((3S,4S)-4-Amino-3-methyl-2-oxa-8-aza-spiro[4.5]dec-8-yl)-3-(2,3-dichloro-4-fluoro-phenyl)-2,5-dimethyl-3H-pyrimidin-4-one] | – |
| 67 | 2740 | Cc1c(F)ccc(-n2c(C)nc(N3CCC4(CC3)CO[C@@H](C)[C@H]4N)c(C)c2=O)c1Cl [Compound 103, 6-((3S,4S)-4-Amino-3-methyl-2-oxa-8-aza-spiro[4.5]dec-8-yl)-3-(2-chloro-4-fluoro-3-methyl-phenyl)-2,5-dimethyl-3H-pyrimidin-4-one] | – |
| 5 | 26 | Cc1c(N2CCC3(CC2)Cc2ccccc2[C@H]3N)nc(C)n(-c2cccc(Br)c2Cl)c1=O [Compound 104, 6-[(1S)-1-amino-1,3-dihydrospiro[indene-2,4′-piperidin]-1′-yl]-3-(3-bromo-2-chlorophenyl)-2,5-dimethyl-3,4-dihydropyrimidin-4-one] | – |
| 6 | 10 | COc1c(F)ccc(-n2c(C)nc(N3CCC4(CC3)Cc3ccccc3[C@H]4N)c(C)c2=O)c1F [Compound 105, 6-[(1S)-1-amino-1,3-dihydrospiro[indene-2,4′-piperidin]-1′-yl]-3-(2,4-difluoro-3-methoxyphenyl)-2,5-dimethyl-3,4-dihydropyrimidin-4-one] | – |
| 2 | 4 | Cc1c(N2CCC3(CC2)Cc2ccccc2[C@H]3N)nc(C)n(-c2ccc(F)c(Cl)c2Cl)c1=O [Compound 109, 6-((1S)-1-amino-1,3-dihydrospiro[indene-2,4′-piperidin]-1′-yl]-3-(2,3-dichloro-4-fluorophenyl)-2,5-dimethyl-3,4-dihydropyrimidin-4-one] | – |
| 2 | 7 | Cc1c(F)ccc(-n2c(C)nc(N3CCC4(CC3)Cc3ccccc3[C@H]4N)c(C)c2=O)c1Cl [Compound 110, 6-[(1S)-1-amino-1,3-dihydrospiro[indene-2,4′-piperidin]-1′-yl]-3-(2-chloro-4-fluoro-3-methylphenyl)-2,5-dimethyl-3,4-dihydropyrimidin-4-one] | – |
| 4 | 14 | Cc1c(N2CCC3(CC2)Cc2ccccc2[C@H]3N)nc(C)n(-c2cccc(F)c2Cl)c1=O [Compound 112, 6-[(1S)-1-amino-1,3-dihydrospiro[indene-2,4′-piperidin]-1′-yl]-3-(2-chloro-3-fluorophenyl)-2,5-dimethyl-3,4-dihydropyrimidin-4-one] | – |
| 6 | 15 | Cc1c(N2CCC3(CC2)Cc2ccccc2[C@H]3N)nc(C)n(-c2ccc(F)c(F)c2Cl)c1=O [Compound 113, 6-[(1S)-1-amino-1,3-dihydrospiro[indene-2,4′-piperidin]-1′-yl)-3-(2-chloro-3,4-difluorophenyl)-2,5-dimethyl-3,4-dihydropyrimidin-4-one] | – |
| 200 | 2190 | Cc1c(N2CCC3(CC2)CO[C@@H](C)[C@H]3N)nc(N)n(-c2cccc(Cl)c2Cl)c1=O [Compound 116, 2-Amino-6-((3S,4S)-4-amino-3-methyl-2-oxa-8-aza-spiro[4.5]dec-8-yl)-3-(2,3-dichloro-phenyl)-5-methyl-3H-pyrimidin-4-one] | – |
| 15 | 6 | Cc1c(N2CCC3(CC2)Cc2ccccc2[C@H]3N)nc(N)n(-c2cccc(Cl)c2Cl)c1=O [Compound 117, 2-amino-6-[(3S)-3-amino-1,3-dihydrospiro[indene-2,4′-piperidin]-1′-yl]-3-(2,3-dichlorophenyl)-5-methyl-3,4-dihydropyrimidin-4-one] | Ki [4]: 2500 nM; Split between hErg and cell activity Ki (patch Clamp)/IC50 (KYSE) [4]: 417 |
| 16 | 51 | Nc1nc(N2CCC3(CC2)Cc2ccccc2[C@H]3N)cc(=O)n1-c1cccc(Cl)c1Cl [Compound 118, 2-amino-6-[(3S)-3-amino-1,3-dihydrospiro[indene-2,4′-piperidin]-1′-yl]-3-(2,3-dichlorophenyl)-3,4-dihydropyrimidin-4-one] | – |
| – | – | Cc1nc(N2CCC3(CC2)CO[C@@H](C)[C@H]3N)c(CO)nc1-c1cccc(Cl)c1Cl [RMC-4550, reference compound] | Ki [4]: 600 nM; Fz [1]: 86%; Vd ([1]; in vivo): 6.1 L/kg; clearance ([1]; plasma, intravenous): 20 mL/min/kg |
| – | – | CC1(N)CCN(c2cnc(-c3cccc(Cl)c3Cl)c(N)n2)CC1 [SHP-099, reference compound] | clearance ([1]; in vivo): 95 mL/min/kg; Vd ([1]; in vivo): 5 L/kg |

| SMILES | IC50 [2, 6] [nM] | IC50 (pERK1/2 in KYSE520 cells) [nM] | other results |
| --- | --- | --- | --- |
| Cc1c(N2CCC3(CC2)Cc2ncccc2[C@H]3N)nc(C)n(-c2cccc(Cl)c2Cl)c1=O (single isomer, unassigned) [Compound 66a] | 73 | – | IC50 [2, 5]: 48 nM; IC50 [3, 7]: 200 nM; IC50 [3, 8]: 97 nM |
| Cc1c(N2CCC3(CC2)Cc2ncccc2[C@H]3N)nc(C)n(-c2cccc(Cl)c2Cl)c1=O (single isomer, unassigned) [Compound 66b] | – | 5 | Ki [4]: 7500 nM; Split between hErg and cell activity Ki (patch Clamp)/IC50 (KYSE) [4]: 580; Fz [1]: 100%; clearance ([1]; plasma, intravenous): 8.33 mL/min/kg; Vd ([1]; plasma, intravenous): 1.96 L/kg; IC50 [2, 5]: 0.7 nM; IC50 [2, 9]: 1 nM; IC50 [3, 10]: 1.9 nM; IC50 [3, 11]: 1.9 nM |
| Cc1c(N2CCC3(CC2)Oc2ccccc2[C@H]3N)nc(C)n(-c2cccc(Cl)c2Cl)c1=O (single isomer, unassigned) [Compound 81b] | 1.4 | 6.6 | Fz [1]: 48%; clearance ([1]; plasma, intravenous): 2.5 mL/min/kg; Vd ([1]; plasma, intravenous): 0.68 L/kg; IC50 [2, 5]: 0.3 nM; IC50 [3, 10]: 0.5 nM; IC50 [3, 11]: 1.1 nM |
| [2H]C([2H])([2H])c1c(N2CCC3(CC2)Cc2ccccc2[C@H]3N)nc(C)n(-c2cccc(Cl)c2Cl)c1=O [Compound 106, 6-[(1S)-1-amino-1,3-dihydrospiro[indene-2,4′-piperidin]-1′-yl]-3-(2,3-dichlorophenyl)-5-(2H3)methyl-2-methyl-3,4-dihydropyrimidin-4-one] | – | 10 | IC50 [2, 5]: 1.7 nM; IC50 [2, 9]: 6 nM; IC50 [3, 7]: 6.4 nM; IC50 [3, 8]: 3.5 nM |
| Cc1c(N2CCC3(CC2)Cc2ccccc2[C@H]3N)nc(C)n(-c2cccc(C#N)c2Cl)c1=O [Compound 108, 3-4-[(1S)-1-amino-1,3-dihydrospiro[indene-2,4′-piperidin]-1′-yl]-2,5-dimethyl-6-oxo-1,6-dihydropyrimidin-1-yl-2-chlorobenzonitrile] | – | 32 | IC50 [2, 9]: 7 nM |
